We go through 14 compounds from ChEMBL document CHEMBL1141977 (Bioorg Med Chem Lett, 2005).

In test [1] the target is Sodium-dependent serotonin transporter (Rattus norvegicus, UniProt P31652). Kind of test: Binding affinity determined against Serotonin transporter determined by displacement of [3H]paroxetine from rat cortical membranes. The test is classed as cell membranes, Membrane. Background: In a radioligand displacement assay an active substance lowers the binding of a labelled ligand.

For test [2], the target named is T1, 5-hydroxytryptamine receptor 1A (Homo sapiens, UniProt P08908).
T1 sequence (P08908 whole entry): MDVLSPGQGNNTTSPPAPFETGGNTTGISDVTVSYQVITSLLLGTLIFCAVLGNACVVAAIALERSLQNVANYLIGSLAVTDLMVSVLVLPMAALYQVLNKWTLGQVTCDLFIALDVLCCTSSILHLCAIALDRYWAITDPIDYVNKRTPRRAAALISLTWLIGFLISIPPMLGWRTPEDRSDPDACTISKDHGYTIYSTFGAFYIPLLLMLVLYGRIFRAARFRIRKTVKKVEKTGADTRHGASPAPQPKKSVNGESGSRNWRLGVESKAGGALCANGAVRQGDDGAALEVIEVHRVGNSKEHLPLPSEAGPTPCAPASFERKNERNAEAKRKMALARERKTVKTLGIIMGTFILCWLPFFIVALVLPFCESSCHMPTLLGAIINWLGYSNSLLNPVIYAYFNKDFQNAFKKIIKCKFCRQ
Description: Binding affinity determined against human 5-hydroxytryptamine 1A receptors transfected into CHO cells. The test is classed as cell-based.

The target of test [3] is T2, 5-hydroxytryptamine receptor 1A (Homo sapiens) (UniProt P08908).
T2 sequence (whole entry): T1 sequence (P08908 whole entry)
Description: Intrinsic activity towards 5-HT1A receptor using [35S]GTP-gamma-S, binding assay. The test is classed as functional.

Chain of Sodium-dependent serotonin transporter (P31652 whole entry): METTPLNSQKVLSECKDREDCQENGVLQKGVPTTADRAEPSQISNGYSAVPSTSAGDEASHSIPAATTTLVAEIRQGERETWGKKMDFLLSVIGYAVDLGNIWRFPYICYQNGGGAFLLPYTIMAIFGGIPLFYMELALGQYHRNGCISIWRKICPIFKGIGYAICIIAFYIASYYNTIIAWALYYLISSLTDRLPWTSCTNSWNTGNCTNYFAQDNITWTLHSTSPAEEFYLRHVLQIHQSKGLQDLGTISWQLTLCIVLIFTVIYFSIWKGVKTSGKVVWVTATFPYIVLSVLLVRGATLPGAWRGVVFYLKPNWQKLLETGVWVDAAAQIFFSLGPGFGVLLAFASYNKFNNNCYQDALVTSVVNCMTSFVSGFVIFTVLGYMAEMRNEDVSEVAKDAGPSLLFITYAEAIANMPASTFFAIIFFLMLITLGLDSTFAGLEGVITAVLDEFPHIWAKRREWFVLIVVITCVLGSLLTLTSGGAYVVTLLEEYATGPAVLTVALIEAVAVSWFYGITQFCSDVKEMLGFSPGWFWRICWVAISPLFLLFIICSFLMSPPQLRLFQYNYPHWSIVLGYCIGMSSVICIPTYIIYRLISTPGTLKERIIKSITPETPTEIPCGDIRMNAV

In general, Ki refers to a dissociation constant, usually derived from enzyme kinetics or from competition with a known ligand. Low values mean a stronger hold on the target, high ones a looser hold on the target. The term Emax denotes the greatest response seen or fitted, relative to the assay's reference. As for `Fc1ccc2[nH]cc([C@H]3CC[C@H](NCC4COc5ccccc5O4)CC3)c2c1` (stereo not given in full), the inhibition constant Ki in test [1] was 14.1 nM; in test [2], 194 nM. Also, in test [3], the Emax was 94%.

Turning to `Fc1ccc2[nH]cc([C@H]3CC[C@@H](NCCOc4cccc5[nH]ccc45)CC3)c2c1`, the Ki in test [1] is 12.6 nM. Further, the maximal response (Emax) in test [3] is 7%.

`COc1ccccc1N1CCN([C@H]2CC[C@@H](c3c[nH]c4ccc(F)cc43)CC2)CC1`: the Ki in test [1] came to 3.3 nM; in test [2], 129 nM. Further, the Emax in test [3] amounted to 5%.

In test [1], `Fc1ccc2[nH]cc([C@H]3CC[C@H](NCCOc4cccc5[nH]ccc45)CC3)c2c1` gave a Ki of 1.73 nM. This compound also gave a maximal response (Emax) in test [3] of 59%.

For `COc1ccccc1N1CCN([C@H]2CC[C@H](c3c[nH]c4ccc(F)cc43)CC2)CC1`, the Ki came to 46.1 nM in test [1] and 14.3 nM in test [2]. This compound displayed a maximal effect (Emax) in test [3] of 29%.

On to `Fc1ccc2[nH]cc([C@H]3CC[C@@H](NCC4COc5ccccc5O4)CC3)c2c1` (stereo not given in full), for which the inhibition constant (Ki) is 23.2 nM in test [1] and 332 nM in test [2]. Moreover, the maximal effect (Emax) in test [3] came to 44%.

In turn, `Fc1ccc2[nH]cc([C@H]3CC[C@H](N4CCN(c5cccc6c5OCCO6)CC4)CC3)c2c1` came in with a Ki in test [1] of 67.2 nM. The compound also yielded a maximum response (Emax) in test [3] of 57%.

In test [2], `COc1ccccc1OCCN[C@H]1CC[C@@H](c2c[nH]c3ccc(F)cc32)CC1` registered an inhibition constant Ki of 307 nM. Besides, the Emax in test [3] is 22%.

In test [3], `Fc1ccc2[nH]cc([C@H]3CC[C@H](N4CCN(c5cccc6[nH]ccc56)CC4)CC3)c2c1` returned a maximal effect (Emax) of 43%.

`Fc1ccc2[nH]cc([C@H]3CC[C@@H](N4CCN(c5cccc6[nH]ccc56)CC4)CC3)c2c1` had an Emax in test [3] of 10%.

On to `Fc1ccc2[nH]cc([C@H]3CC[C@@H](NCCOc4cccc5c4OCCO5)CC3)c2c1`, for which, in test [1], the Ki worked out at 12.1 nM. Also, in test [3], the Emax worked out at 27%.

In test [1], `Fc1ccc2[nH]cc([C@H]3CC[C@@H](N4CCN(c5cccc6c5OCCO6)CC4)CC3)c2c1` yielded an inhibitory constant (Ki) of 5.31 nM. Besides, in test [3], the maximum response (Emax) was 0%.

In test [2], `COc1ccccc1OCCN[C@H]1CC[C@H](c2c[nH]c3ccc(F)cc32)CC1` came in with a Ki of 22.4 nM. In test [3], this compound showed an Emax of 80%.

In turn, `Fc1ccc2[nH]cc([C@H]3CC[C@H](NCCOc4cccc5c4OCCO5)CC3)c2c1` showed a Ki in test [1] of 1.05 nM. Also, the Emax in test [3] worked out at 43%.
